# Measured values published in patent US11975051B1, “Therapeutic peptides and uses thereof” (priority 2022, dated 2024).
# Like-named read-outs stand apart in the source and are kept apart here. Where no end group is shown, it is not given here. [ ]: non-standard residue; d: D form.
# Legend:
# IL-6 = IL-6 lowering in ConA stimulated peripheral blood mononuclear cells; assay type: cell-based, human; details: 5 μg/mL ConA 72 hours, N=3
# Excerpt: (§1) The influence of proinflammatory cytokines on the immunoregulatory function of immune cells from healthy donors may be assessed using mitogen-stimulated PBMC responses, which can be measured by determining the effect of test compounds on cytokine levels after stimulation by Concanavilin A (“ConA”). See Arneth, CURRENT PROTOCOLS IN CYTOMETRY 6.28 supplement 51 (2010); A. Erhardt et al., Immunology and Liver Disease Karger (2010); W. Ge et al., INTERNATIONAL IMMUNOPHARMACOLOGY 85 (2020); S. Malchow et al., BICHIMICA ET BIOPHYSICA ACTA 1812:290-301 (2011); A. Thomazelli et al., IMMUNOPHARMACOLOGY AND IMMUNOTOXICOLOGY, 40:5:387-392 (2018); N. Umeda et al., LEUKOCYTE BIOLOGY 791-801 (2019); H. Wang et al., WORLD JOURNAL OF GASTROENTEROLOGY 119-125 (2012).
# (§2) Normal human PBMCs were stimulated with 5 μg/mL ConA for 72 hours followed by treatment with test compound, each of which are set forth in Table 6, at either 4.15 μM or 41.5 μM. Data represents mean of either TNFα or interleukin IL-6 lowering after ConA stimulation±SD. 2-way ANOVA with Dunnet's multiple comparison test; * p<0.05 (represented as +); ** p<0.01 (represented as ++); *** p<0.001 **** (represented as +++); p<0.0001 (represented as ++++); N=3 replicates. Both TNFα and IL-6 are inflammatory cytokines for which the lowering would be expected to provide therapeutic benefit for a variety of diseases. For example, TNFα is implicated in the inflammation associated with neurodegenerative and inflammatory disorders (see, e.g., G. D. Kalliolias et al., TNF biology, pathogenic mechanisms and emerging therapeutic strategies, 12(1) NATURE REVIEWS RHEUMATOLOGY 49-62 (2016)) as is […] (see, e.g., S. Kaur et al., A panoramic review of IL-6: Structure, pathophysiological roles and inhibitors, 28(5) BIOORG. MED. CHEM. 115327 (2020)).
# TNFα = TNFα lowering in ConA stimulated peripheral blood mononuclear cells; assay type: cell-based, human; details: 5 μg/mL ConA 72 hours, N=3
# Excerpt: as §1, §2
# ALS patient-derived ASCs = test: Stressed ALS patient-derived ASCs treated with peptides, SeaHorse analytics (Example 6); assay type: cell-based, human; details: tested at 0.5 and/or 5 mM (TP-5 0.01-100 mM), DMSO/H2O
# Excerpt: ALS patient-derived ASCs showing hypermetabolism and lipid sequestration were stressed and treated with peptides (shown below, column 2) and effect of the peptide measured with SeaHorse analytics.
# ALS patients = details: cited from earlier work
# patients with ALS = details: cited from earlier work
# Mouse plasma stability = assay type: in vitro ADME; details: read-out: Mouse Plasma Stability t½
# [1] = Mouse (liver) microsomal stability; assay type: in vitro ADME; details: mouse, liver microsomes
# [2] = Pharmacokinetics in mice dosed IV, SC and PO; assay type: in vivo, mouse; details: mouse, in vivo, mice
# renal dialysis patients = details: cited from earlier work
# [3] = also when given with other drugs; cited from earlier work
# [4] = in vivo; cited from earlier work
# SOD1^G93A model = test: Thymalfasin in the SOD1^G93A ALS mouse model; assay type: in vivo
# Excerpt: (§3) In mice, thymalfasin is metabolized to the active molecule thymopentin. Because mice process the pro-molecule thymalfasin into thymopentin as do humans, thymalfasin may illuminate the effects of thymopentin by increasing target engagement afforded by the pro-molecule.
# TDP43 model = test: Thymalfasin in the TDP43 (Prp-TDP43^A315T) ALS mouse model; assay type: in vivo
# Excerpt: as §3
Molecule,IL-6 lowering after ConA stimulation (significance) (IL-6; 4.15 μM test compound),IL-6 lowering after ConA stimulation (significance) (IL-6; 41.5 μM test compound),TNFα lowering after ConA stimulation (significance) (TNFα; 4.15 μM test compound),TNFα lowering after ConA stimulation (significance) (TNFα; 41.5 μM test compound),Conc. with positive effect (ALS patient-derived ASCs),further results
1 (RKDVY) [Compound 1],+ (* p<0.05 (represented as +)),+++ (*** p<0.001 **** (represented as +++)),+++ (*** p<0.001 **** (represented as +++)),++++ (p<0.0001 (represented as ++++)),none,–
6 (Ac-[dY][dV][dD][dK][dR]-NHMe) [Compound 6],+ (* p<0.05 (represented as +)),++++ (p<0.0001 (represented as ++++)),++++ (p<0.0001 (represented as ++++)),++++ (p<0.0001 (represented as ++++)),5 mM,–
8 (Ac-[dY][dV][dD][dK][dR]-NH2) [Compound 8],–,–,–,–,5 mM,–
CC1=NN(c2ccccc2)C(=O)C1 [Edavarone],–,–,–,–,–,slowing of the progression of disease (ALS patients): 33%
Nc1nc2ccc(OC(F)(F)F)cc2s1 [Riluzole],–,–,–,–,–,extension of life (patients with ALS): several months
Ac-Arg-Lys-Asp-Val-Tyr-NH2 (Ac-RKDVY-NH2) [Compound 3],–,+++ (*** p<0.001 **** (represented as +++)),+ (* p<0.05 (represented as +)),++ (** p<0.01 (represented as ++)),none,–
Ac-Arg-Lys-Asp-Val-Tyr-NHMe (Ac-RKDVY-NHMe; SMILES CNC(=O)[C@H](Cc1ccc(O)cc1)NC(=O)[C@@H](NC(=O)[C@H](CC(=O)O)NC(=O)[C@H](CCCCN)NC(=O)[C@H](CCCNC(=N)N)NC(C)=O)C(C)C) [Compound 5],+ (* p<0.05 (represented as +)),++ (** p<0.01 (represented as ++)),–,+ (* p<0.05 (represented as +)),none,–
Arg-Lys-Asp-Val-Tyr-NH2 (RKDVY-NH2) [Compound 2],++ (** p<0.01 (represented as ++)),+++ (*** p<0.001 **** (represented as +++)),++ (** p<0.01 (represented as ++)),++ (** p<0.01 (represented as ++)),none,–
Arg-Lys-Asp-Val-Tyr-NHMe (RKDVY-NHMe) [Compound 4],+ (* p<0.05 (represented as +)),++ (** p<0.01 (represented as ++)),++ (** p<0.01 (represented as ++)),+++ (*** p<0.001 **** (represented as +++)),none,–
D-Tyr-D-Val-D-Asp-D-Lys-D-Arg-NH2 ([dY][dV][dD][dK][dR]-NH2) [Compound 7],–,–,–,–,0.5 mM,–
"RKDVY [TP-5, Arg-Lys-Asp-Val-Tyr, reference compound]",–,–,–,–,–,"half-life (Mouse plasma stability): 23.1 min; half-life ([1]; mouse liver microsomes, read-out: stability in mouse liver microsomes, half-life): 23.1 min; half-life ([1]; mouse microsomes, read-out: Mouse Microsomal Stability t½): > 60 min; half-life ([2]; IV, read-out: IV t½, mice): 5.58 min; bioavailability ([2]; PO, read-out: PO % F, mice): 36%; AUC(0-inf) ([2]; PO, read-out: PO AUCinf): 1270 ng·h/mL; Cmax ([2]; PO, read-out: PO Cmax): 1370 ng/mL; half-life ([2]; PO, read-out: PO t½, mice): 7.72 min; bioavailability ([2]; SC, read-out: SC % F, mice): 39%; AUC(0-inf) ([2]; SC, read-out: SC AUCinf): 126 ng·h/mL; Cmax ([2]; SC, read-out: SC Cmax): 133 ng/mL; half-life ([2]; SC, read-out: SC t½, mice): 8.92 min; IL-6, IL-8, TNF and CRP (renal dialysis patients): reduced; superoxide dismutase (SOD), state of oxidative stress (renal dialysis patients): increasing; safety / tolerability [3]: well tolerated; half-life of exogenous thymopentin [4]: seconds"
"thymalfasin: thymosin α (Tα1), 28 amino acids, commercially available as ZADAXIN; pro-molecule metabolized to thymopentin (Ac-SDAAVDTSSEITTKDLKEKKEVVEEAEN; UniProt P06454 2-29, looked up)",–,–,–,–,–,"ubiquitin in brain tissue and spinal cord on histopathology (SOD1^G93A model): statistically-significant reduction; growth and strength (based on wire hang tests) (TDP43 model; TDP-43 mouse model): improvement; disease phenotype (TDP43 model; TDP-43 mouse model, one cohort): prevented in one cohort; Iba1 and brain GFAP, measures of inflammation (TDP43 model; treated mice): Statistically-significant reduction"
